Data from ChEMBL document CHEMBL5096214, “Discovery of a new class of valosine containing protein (VCP/P97) inhibitors for the treatment of colorectal cancer” (Bioorg Med Chem, 2022).
One block for each molecule: values may come before it. The source made the active and inactive calls. No cut-off for these calls is given here.

How the values were obtained:
HCT-116 [1] = assay: Anti-proliferative activity against human HCT-116 cells assessed as inhibition of cell proliferation incubated for 72 hrs by CellTiter-Glo luminescent assay; format: functional, cell-based; conditions: HCT-116, 72 h
[2] = target: Transitional endoplasmic reticulum ATPase (Homo sapiens, UniProt P55072); assay: Inhibition of p97 (unknown origin) using ATP as substrate incubated for 60 mins by ADP-Glo reagent based luminescence assay
Transitional endoplasmic reticulum ATPase, sequence (P55072 whole entry): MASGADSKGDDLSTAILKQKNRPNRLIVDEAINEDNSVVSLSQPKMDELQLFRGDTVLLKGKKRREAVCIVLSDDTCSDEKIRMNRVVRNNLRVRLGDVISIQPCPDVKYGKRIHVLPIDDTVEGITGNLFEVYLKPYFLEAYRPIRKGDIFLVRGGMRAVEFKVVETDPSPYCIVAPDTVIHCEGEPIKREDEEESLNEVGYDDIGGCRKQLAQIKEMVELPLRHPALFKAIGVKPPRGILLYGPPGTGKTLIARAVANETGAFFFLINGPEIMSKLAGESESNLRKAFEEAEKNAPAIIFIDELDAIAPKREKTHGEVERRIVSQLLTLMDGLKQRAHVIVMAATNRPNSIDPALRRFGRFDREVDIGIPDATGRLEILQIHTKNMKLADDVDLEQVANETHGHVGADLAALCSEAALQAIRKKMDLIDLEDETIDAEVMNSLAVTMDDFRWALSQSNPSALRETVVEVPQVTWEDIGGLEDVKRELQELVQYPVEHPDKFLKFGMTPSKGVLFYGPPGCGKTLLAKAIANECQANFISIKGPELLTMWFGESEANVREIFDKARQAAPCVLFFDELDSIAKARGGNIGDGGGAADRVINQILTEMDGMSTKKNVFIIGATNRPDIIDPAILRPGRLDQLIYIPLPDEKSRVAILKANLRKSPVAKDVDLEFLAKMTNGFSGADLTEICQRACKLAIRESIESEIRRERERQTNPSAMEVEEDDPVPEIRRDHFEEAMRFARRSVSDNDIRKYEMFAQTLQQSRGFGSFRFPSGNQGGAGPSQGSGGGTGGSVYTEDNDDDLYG

[3] = MRT in Sprague-Dawley rat at 10 mg/kg, po measured for 30 hrs by LC-MS/MS analysis; format: ADME, organism-based; conditions: in vivo
[4] = Tmax in Sprague-Dawley rat at 10 mg/kg, po measured for 30 hrs by LC-MS/MS analysis; format: ADME, organism-based; conditions: in vivo
[5] = Elimination half life in Sprague-Dawley rat at 10 mg/kg, po measured for 30 hrs by LC-MS/MS analysis; format: ADME, organism-based; conditions: in vivo, read-out: beta t1/2 (converted)
[6] = AUC (0 to t) in Sprague-Dawley rat at 1 mg/kg, iv measured for 24 hrs by LC-MS/MS analysis; format: ADME, organism-based; design: time 24 hrs, dose 1 mg/kg, route iv; conditions: in vivo
[7] = Elimination half life in Sprague-Dawley rat at 1 mg/kg, iv measured for 24 hrs by LC-MS/MS analysis; format: ADME, organism-based; conditions: in vivo, read-out: beta t1/2 (converted)
[8] = AUC (0 to t) in Sprague-Dawley rat at 10 mg/kg, po measured for 30 hrs by LC-MS/MS analysis; format: ADME, organism-based; design: dose 10 mg/kg, time 30 hrs, route po; conditions: in vivo
[9] = AUC (0 to infinity) in Sprague-Dawley rat at 10 mg/kg, po by LC-MS/MS analysis; format: ADME, organism-based; design: time infinity, dose 10 mg/kg, route po; conditions: in vivo
[10] = Oral bioavailability in Sprague-Dawley rat at 10 mg/kg measured for 30 hrs by LC-MS/MS analysis; format: ADME, organism-based; conditions: in vivo
[11] = AUC (0 to infinity) in Sprague-Dawley rat at 1 mg/kg, iv by LC-MS/MS analysis; format: ADME, organism-based; design: time infinity, dose 1 mg/kg, route iv; conditions: in vivo
[12] = MRT in Sprague-Dawley rat at 1 mg/kg, iv measured for 24 hrs by LC-MS/MS analysis; format: ADME, organism-based; conditions: in vivo
[13] = Cmax in Sprague-Dawley rat at 10 mg/kg, po measured for 30 hrs by LC-MS/MS analysis; format: ADME, organism-based; design: dose 10 mg/kg, time 30 hrs, route po; conditions: in vivo
[14] = Cmax in Sprague-Dawley rat at 1 mg/kg, iv measured for 24 hrs by LC-MS/MS analysis; format: ADME, organism-based; design: dose 1 mg/kg, time 24 hrs, route iv; conditions: in vivo
[15] = Half life in human liver microsomes at 1 uM in presence of beta-NADPH measured for 60 mins by LC-MS/MS analysis; format: ADME, Microsome
[16] = Intrinsic clearance in mouse liver microsomes at 1 uM in presence of beta-NADPH measured for 60 mins by LC-MS/MS analysis; format: ADME, Microsome; conditions: read-out: CLH
[17] = Intrinsic clearance in rat liver microsomes at 1 uM in presence of beta-NADPH measured for 60 mins by LC-MS/MS analysis; format: ADME, Microsome; conditions: read-out: CLH
[18] = Half life in mouse liver microsomes at 1 uM in presence of beta-NADPH measured for 60 mins by LC-MS/MS analysis; format: ADME, Microsome
[19] = Intrinsic clearance in human liver microsomes at 1 uM in presence of beta-NADPH measured for 60 mins by LC-MS/MS analysis; format: ADME, Microsome; conditions: read-out: CLH
[20] = Half life in monkey liver microsomes at 1 uM in presence of beta-NADPH measured for 60 mins by LC-MS/MS analysis; format: ADME, Macaca mulatta, Microsome; conditions: rhesus monkey
[21] = Half life in rat liver microsomes at 1 uM in presence of beta-NADPH measured for 60 mins by LC-MS/MS analysis; format: ADME, Microsome
[22] = Toxicity in BALB/c mouse xenografted with human HCT-116 cells assessed as body weight loss at 100 mg/kg, po qd for 21 days; format: organism-based; conditions: in vivo, 504 h, time 21 day
[23] = Intrinsic clearance in monkey liver microsomes at 1 uM in presence of beta-NADPH measured for 60 mins by LC-MS/MS analysis; format: ADME, Macaca mulatta, Microsome; conditions: rhesus monkey, read-out: CLH
[24] = Toxicity in BALB/c mouse xenografted with human HCT-116 cells assessed as side effects at 100 mg/kg, po qd for 21 days; format: organism-based; conditions: in vivo, 504 h, time 21 day
[25] = Tmax in Sprague-Dawley rat at 1 mg/kg, iv measured for 24 hrs by LC-MS/MS analysis; format: ADME, organism-based; conditions: in vivo
[26] = Half life in dog liver microsomes at 1 uM in presence of beta-NADPH measured for 60 mins by LC-MS/MS analysis; format: ADME, Canis lupus familiaris, Microsome
HCT-116 [27] = assay: Anti-tumor activity against human HCT-116 cells xenografted in BALB/c mouse assessed as reduction in tumor volume at 100 mg/kg, po qd for 21 days; format: functional, organism-based; conditions: time 21.0 day
[28] = Intrinsic clearance in dog liver microsomes at 1 uM in presence of beta-NADPH measured for 60 mins by LC-MS/MS analysis; format: ADME, Canis lupus familiaris, Microsome; conditions: read-out: CLH
[29] = Toxicity in BALB/c mouse xenografted with human HCT-116 cells assessed as side effects at 50 mg/kg, po qd for 21 days; format: organism-based; conditions: in vivo, 504 h, time 21 day
[30] = Toxicity in BALB/c mouse xenografted with human HCT-116 cells assessed as side effects at 100 mg/kg, po measured on day 4; format: organism-based; conditions: in vivo, 96 h, time 4 day
[31] = Toxicity in BALB/c mouse xenografted with human HCT-116 cells assessed as animals death at 100 mg/kg, po measured on day 8; format: organism-based; conditions: in vivo, 192 h, time 8 day
[32] = Toxicity in BALB/c mouse xenografted with human HCT-116 cells assessed as body weight loss at 100 mg/kg, po measured on day 4; format: organism-based; conditions: in vivo, 96 h, time 4 day
[33] = Toxicity in BALB/c mouse xenografted with human HCT-116 cells assessed as body weight loss at 50 mg/kg, po qd for 21 days; format: organism-based; conditions: in vivo, 504 h, time 21 day

IC50 [2]: 154 nM
Compound: Cc1cc2c(C(N)=O)cccc2n1-c1nc2c(c(NCc3cccc(N)c3)n1)CCC2

IC50 [2]: 233 nM
Compound: Cc1cc2c(C(=N)N)cccc2n1-c1nc2c(c(NCc3cccc(O)c3)n1)CCC2

IC50 (HCT-116 [1]): 1400 nM | IC50 [2]: 72 nM
Compound: CCONC(=O)c1cccc2c1cc(C)n2-c1nc2c(c(NCc3cccc(B(O)O)c3)n1)CCC2

IC50 (HCT-116 [1]): 2400 nM | IC50 [2]: 96 nM
Compound: C/C=C/C(=O)Nc1cccc2c1cc(C)n2-c1nc2c(c(NCc3cccc(O)c3)n1)CCC2

IC50 (HCT-116 [1]): 600 nM | IC50 [2]: 31 nM
Compound: CCONC(=O)c1cccc2c1cc(C)n2-c1nc2c(c(NCc3cccc(O)c3)n1)CCC2

IC50 [2]: 216 nM
Compound: Cc1cc2c(NC(=O)c3cscn3)cccc2n1-c1nc2c(c(NCc3cccc(O)c3)n1)CCC2

Continued, molecule first:

Compound: Cc1cc2c(NS(C)(=O)=O)cccc2n1-c1nc2c(c(NCc3cccc(O)c3)n1)CCC2
IC50 (HCT-116 [1]): 800 nM | IC50 [2]: 97 nM

Compound: Cc1cc2c(C(=N)NO)cccc2n1-c1nc2c(c(NCc3cccc(O)c3)n1)CCC2
IC50 (HCT-116 [1]): 1100 nM | IC50 [2]: 35 nM

Compound: Cc1cc2c(NC(=O)c3ccco3)cccc2n1-c1nc2c(c(NCc3cccc(O)c3)n1)CCC2
IC50 (HCT-116 [1]): 1200 nM | IC50 [2]: 49 nM

Compound: CONC(=O)c1cccc2c1cc(C)n2-c1nc2c(c(NCc3cccc(O)c3)n1)CCC2
MRT [3]: 201 min | Tmax [4]: 30 min | half-life [5]: 153 min | AUC(0-t) at 24 h [6]: 94.8 ng·h/mL | half-life [7]: 50.4 min | AUC(0-t) at 30 h [8]: 108 ng·h/mL | AUC(0-inf) [9]: 121 ng·h/mL | IC50 (HCT-116 [1]): 300 nM | bioavailability [10]: 11.1% | AUC(0-inf) [11]: 108 ng·h/mL | MRT [12]: 73.8 min | Cmax [13]: 52.5 ng/mL | IC50 [2]: 48 nM

Compound: C=CC(=O)Nc1cccc2c1cc(C)n2-c1nc2c(c(NCc3cccc(O)c3)n1)CCC2
IC50 (HCT-116 [1]): 1200 nM | IC50 [2]: 26 nM

Compound: Cc1cc2c(C(N)=O)cccc2n1-c1nc2c(c(NCc3cccc(O)c3)n1)CCC2
Cmax [14]: 284 ng/mL | MRT [3]: 276 min | half-life at 1 µM [15]: 37.1 min | Tmax [4]: 30 min | microsomal CLint at 1 µM [16]: 48.2 µL/min/mg | half-life [5]: 228 min | AUC(0-t) at 24 h [6]: 142 ng·h/mL | half-life [7]: 168 min | AUC(0-t) at 30 h [8]: 283 ng·h/mL | AUC(0-inf) [9]: 345 ng·h/mL | microsomal CLint at 1 µM [17]: 132 µL/min/mg | half-life at 1 µM [18]: 28.8 min | microsomal CLint at 1 µM [19]: 37.4 µL/min/mg | IC50 (HCT-116 [1]): 400 nM | half-life at 1 µM [20]: 23.8 min | bioavailability [10]: 23.5% | AUC(0-inf) [11]: 147 ng·h/mL | MRT [12]: 67.2 min | half-life at 1 µM [21]: 10.5 min | Cmax [13]: 130 ng/mL | IC50 [2]: 53 nM | Activity [22]: Non-Toxic | microsomal CLint at 1 µM [23]: 58.2 µL/min/mg | Activity [24]: Non-Toxic | Tmax [25]: 4.8 min | half-life at 1 µM [26]: 34.8 min | Activity (HCT-116 [27]): Active | microsomal CLint at 1 µM [28]: 39.8 µL/min/mg

Compound: CON(C)C(=O)c1cccc2c1cc(C)n2-c1nc2c(c(NCc3cccc(B(O)O)c3)n1)CCC2
IC50 [2]: 1220 nM

Compound: CONC(=O)c1cccc2c1cc(C)n2-c1nc2c(c(NCc3cccc(B(O)O)c3)n1)CCC2
IC50 (HCT-116 [1]): 1000 nM | IC50 [2]: 54 nM

Compound: CON(C)C(=O)c1cccc2c1cc(C)n2-c1nc2c(c(NCc3cccc(O)c3)n1)CCC2
IC50 [2]: 863 nM

Compound: COc1ccc(/C=C/C(=O)Nc2cccc3c2cc(C)n3-c2nc3c(c(NCc4cccc(O)c4)n2)CCC3)cc1
IC50 [2]: 2470 nM

Compound: Cc1cc2c(C(N)=O)cccc2n1-c1nc2c(c(NCc3ccccc3)n1)CCCN2
MRT [3]: 96 min | half-life at 1 µM [15]: 35.9 min | Tmax [4]: 30 min | Activity [29]: Non-Toxic | microsomal CLint at 1 µM [16]: 176 µL/min/mg | half-life [5]: 73.8 min | AUC(0-t) at 24 h [6]: 390 ng·h/mL | half-life [7]: 22.8 min | AUC(0-t) at 30 h [8]: 779 ng·h/mL | Activity [30]: Toxic | AUC(0-inf) [9]: 796 ng·h/mL | microsomal CLint at 1 µM [17]: 318 µL/min/mg | Activity [31]: Toxic | half-life at 1 µM [18]: 19.1 min | Activity [32]: Toxic | microsomal CLint at 1 µM [19]: 36.5 µL/min/mg | IC50 (HCT-116 [1]): 700 nM | half-life at 1 µM [20]: 9.8 min | bioavailability [10]: 20% | AUC(0-inf) [11]: 398 ng·h/mL | MRT [12]: 25.2 min | half-life at 1 µM [21]: 7.9 min | Cmax [13]: 444 ng/mL | IC50 [2]: 44 nM | Activity [33]: Non-Toxic | microsomal CLint at 1 µM [23]: 203 µL/min/mg | half-life at 1 µM [26]: 33 min | microsomal CLint at 1 µM [28]: 60 µL/min/mg

Compound: Cc1cc2c(NC(=O)/C=C/c3ccccc3)cccc2n1-c1nc2c(c(NCc3cccc(O)c3)n1)CCC2
IC50 [2]: 3510 nM

Compound: Cc1cc2c(NC(=O)c3cccs3)cccc2n1-c1nc2c(c(NCc3cccc(O)c3)n1)CCC2
IC50 [2]: 185 nM
